Measurements: patent publication US10000507B2, “Furo- and thieno-pyridine carboxamide compounds useful as pim kinase inhibitors” (Incyte Corporation, priority 2013, dated 2018)

How the values were obtained:
Assay type in all cases: biochemical
Pim-1 = Pim-1 (Homo sapiens (Human), UniProt P11309); experiment: Pim-1 kinase assay; conditions: 1 mM ATP, biotin-labeled BAD peptide substrate; read-out: Pim1 IC50
Outline: (§1)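 Biotin-BAD peptide ([…]) phosphorylated with 1 mM ATP by 2.5 pM Pim-1 or 1.25 pM Pim-3, 1 h at 25 °C in Tris pH 7.5, MgCl2, DTT buffer. EDTA stop with anti-phospho-BAD (Ser112) antibody and AlphaScreen streptavidin donor/Protein-A acceptor beads; signal read after 1 h dark incubation.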

Pim-2 = Pim-2 (Homo sapiens (Human), UniProt Q9P1W9); experiment: Pim-2 kinase assay; conditions: 1 mM ATP, fluorescein-labeled CREBtide peptide substrate; read-out: Pim2 IC50
Pim-2, sequence (Q9P1W9 whole entry): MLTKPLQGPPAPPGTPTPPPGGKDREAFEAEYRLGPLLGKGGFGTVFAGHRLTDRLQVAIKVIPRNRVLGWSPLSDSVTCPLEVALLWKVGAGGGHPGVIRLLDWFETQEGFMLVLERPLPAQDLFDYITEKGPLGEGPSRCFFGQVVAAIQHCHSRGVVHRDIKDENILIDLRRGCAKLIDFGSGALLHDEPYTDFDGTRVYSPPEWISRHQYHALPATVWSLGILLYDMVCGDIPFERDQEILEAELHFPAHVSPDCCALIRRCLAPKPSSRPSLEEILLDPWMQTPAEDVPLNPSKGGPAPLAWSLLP
Outline: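 TR-FRET assay: 1 nM Pim-2 with 0.05 μM fluorescein-CREBtide and 1 mM ATP in Tris pH 7.5, 5 mM MgCl2, 5 mM DTT, 2 h at 25 °C. EDTA stop, then Tb-anti-pCREB Ser133 antibody for 30 min before reading.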

Pim-3 = Pim-3 (Homo sapiens (Human), UniProt Q86V86); experiment: Pim-3 kinase assay; conditions: 1 mM ATP, biotin-labeled BAD peptide substrate; read-out: Pim3 IC50
Outline: as §1

Pim-1, sequence (P11309 whole entry): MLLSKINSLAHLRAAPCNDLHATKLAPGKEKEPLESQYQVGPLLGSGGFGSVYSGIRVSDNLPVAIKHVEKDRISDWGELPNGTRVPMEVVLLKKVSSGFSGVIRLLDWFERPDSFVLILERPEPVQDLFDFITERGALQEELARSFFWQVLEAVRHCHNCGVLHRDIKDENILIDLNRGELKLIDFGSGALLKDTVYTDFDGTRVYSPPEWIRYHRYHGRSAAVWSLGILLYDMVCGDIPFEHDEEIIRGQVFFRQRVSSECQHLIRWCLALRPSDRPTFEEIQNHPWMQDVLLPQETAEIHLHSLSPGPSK

| Structure (SMILES) | IC50 (Pim-1) [nM] | IC50 (Pim-2) [nM] | IC50 (Pim-3) [nM] |
| --- | --- | --- | --- |
| CCCc1cnc2c(C(=O)Nc3cncc(C)c3N3C[C@@H](N)[C@H](O)[C@@H](C)C3)c(N)oc2c1 [Example 77, 2-Amino-N-{5-methyl-4-[(3R,4R,5S)-3-amino-4-hydroxy-5-methylpiperidin-1-yl]pyridin-3-yl}-6-propylfuro[3,2-b]pyridine-3-carboxamide] | ≤ 10 | ≤ 10 | ≤ 10 |
| Cc1cncc(NC(=O)c2c(N)oc3cc(Cl)cnc23)c1N1C[C@@H](N)[C@H](O)[C@@H](C)C1 [Example 78, 2-Amino-N-{5-methyl-4-[(3R,4R,5S)-3-amino-4-hydroxy-5-methylpiperidin-1-yl]pyridin-3-yl}-6-chlorofuro[3,2-b]pyridine-3-carboxamide] | ≤ 10 | 10 to 100 | ≤ 10 |
| Cc1cncc(NC(=O)c2c(N)oc3cc(C(F)(F)F)cnc23)c1N1C[C@@H](N)[C@H](O)[C@@H](C)C1 [Example 79, 2-Amino-N-{5-methyl-4-[(3R,4R,5S)-3-amino-4-hydroxy-5-methylpiperidin-1-yl]pyridin-3-yl}-6-(trifluoromethyl)-furo[3,2-b]pyridine-3-carboxamide] | ≤ 10 | 10 to 100 | ≤ 10 |
| CCCc1cnc2c(C(=O)Nc3cnccc3N3CC[C@@H](F)[C@H](N)C3)c(N)oc2c1 [Example 80, 2-Amino-N-{4-[(3R,4R)-3-amino-4-fluoro-piperidin-1-yl]pyridin-3-yl}-6-propylfuro[3,2-b]pyridine-3-carboxamide] | ≤ 10 | 100 to 1000 | ≤ 10 |
| Nc1oc2c(Cl)ccnc2c1C(=O)Nc1cnccc1N1CCC[C@H](N)C1 [Example 81, 2-Amino-N-{4-[(3S)-3-aminopiperidin-1-yl]pyridin-3-yl}-7-chloro-furo[3,2-b]pyridine-3-carboxamide] | ≤ 10 | ≤ 10 | ≤ 10 |
| CCCc1cnc2c(C(=O)Nc3cnccc3N3C[C@@H](N)[C@H](O)[C@@H](C4CC4)C3)c(N)oc2c1 [Example 82, 2-Amino-N-{4-[(3R,4R,5S)-3-amino-5-cyclopropyl-4-hydroxypiperidin-1-yl]pyridin-3-yl}-6-propylfuro[3,2-b]pyridine-3-carboxamide] | ≤ 10 | ≤ 10 | ≤ 10 |
| C[C@H]1C[C@@H](c2ccncc2NC(=O)c2c(N)oc3cccnc23)C[C@@H](N)[C@]1(C)O [Example 83, 2-Amino-N-(4-((1R,3R,4R,5S)-3-amino-4-hydroxy-4,5-dimethylcyclohexyl)pyridin-3-yl)furo[3,2-b]pyridine-3-carboxamide] | ≤ 10 | 100 to 1000 | ≤ 10 |
| CCCc1cnc2c(C(=O)Nc3cnccc3[C@H]3C[C@@H](N)[C@](C)(O)[C@@H](C)C3)c(N)oc2c1 [Example 84, 2-Amino-N-(4-((1R,3R,4R,5S)-3-amino-4-hydroxy-4,5-dimethylcyclohexyl)pyridin-3-yl)-6-propylfuro[3,2-b]pyridine-3-carboxamide] | ≤ 10 | 10 to 100 | ≤ 10 |
| CCCc1cnc2c(C(=O)Nc3cnccc3N3C[C@@H](N)[C@](C)(O)[C@@H](C)C3)c(N)oc2c1 [Example 85, 2-Amino-N-{4-[(3R,4R,5S)-3-amino-4-hydroxy-4,5-dimethylpiperidin-1-yl]pyridin-3-yl}-6-propylfuro[3,2-b]pyridine-3-carboxamide] | ≤ 10 | ≤ 10 | ≤ 10 |
| CCCc1cnc2c(C(=O)Nc3cnccc3N3C[C@@H](N)[C@@](C)(O)[C@@H](C)C3)c(N)oc2c1 [Example 86, 2-Amino-N-{4-[(3R,4S,5S)-3-amino-4-hydroxy-4,5-dimethylpiperidin-1-yl]pyridin-3-yl}-6-propylfuro[3,2-b]pyridine-3-carboxamide] | ≤ 10 | ≤ 10 | ≤ 10 |
| Nc1sc2cccnc2c1C(=O)Nc1cnsc1N1CCC[C@H](N)C1 [Example 88, 2-Amino-N-{5-[(3S)-3-aminopiperidin-1-yl]isothiazol-4-yl}thieno[3,2-b]pyridine-3-carboxamide] | ≤ 10 | 100 to 1000 | ≤ 10 |
